Measurements published in patent US20060003382A1, “Compositions and methods for analyte detection” (priority 2004, published 2006).

How the values were obtained:
egg white avidin = biological target: T1, egg white avidin (Gallus gallus, UniProt P02701); test: Cyclic / square wave voltammetry of the complexes before and after addition of avidin; type: binding; conditions: for current signal after addition of biotin to the avidin-bound complex (displacement): 25 equiv (25-fold excess) of biotin; for current signal of the redox couple upon addition of avidin: CV, glassy carbon electrode
T1 construct: Egg white avidin (Molecular Probes); purchased Molecular Probes; host or cells: egg white
T1 sequence (P02701 25-152): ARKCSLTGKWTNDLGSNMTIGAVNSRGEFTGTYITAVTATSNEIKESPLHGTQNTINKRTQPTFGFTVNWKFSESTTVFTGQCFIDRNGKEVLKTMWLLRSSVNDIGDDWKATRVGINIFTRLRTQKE
Procedure: All operations involving Ru were carried out under argon according to standard Schlenk techniques. [(H2O)Ru(NH3)5]^2+ was either generated and isolated as the PF6^− salt according to the literature procedure and then used or the or Cl^− salt was used directly (See, e.g., Callahan et al., Inorg. Chem. 1975, 14, 1443-1453). Electrochemical experiments were carried out using a CH Instruments 660A workstation, a glassy carbon working electrode, a Ag/AgCl reference electrode and a platinum wire counter electrode.
A solution of [(4-BMP)Ru(NH3)5](PF6)2 in pH 9.3 phosphate buffer was prepared and the cyclic voltammogram obtained.
A solution of 1.0 mg [(4-DMP)Ru(NH3)5](PF6)2 in 4.2 mL 0.5M NaCl in H2O was prepared and the cyclic voltammogram obtained. […] To this was added 26 mg avidin, the CV obtained, and then 0.25 mL of a solution of methyl viologen (10 mg/5 mL; 7.77×10^−3M) was added and the CV remeasured.
A 19 mg portion of avidin was added, the CV and square wave voltammograms were recorded.
A 4.8×10^−5 M solution (0.75 mg) of [(4-DPEP)Ru(NH3)5](PF6)2 in pH 7.18 phosphate buffer was prepared and the cyclic voltammogram obtained.
The electrochemical experiments were performed in phosphate buffer at pH 9.3, 8.1, and 7.3, in 0.5M NaCl solution, and in pH 7.3 HEPES buffer.

avidin [1] = biological target: T2, avidin (Gallus gallus, UniProt P02701); conditions: non-covalent protein-small molecule interaction; cited from earlier work
T2 sequence (P02701 25-152): as above

avidin [2] = biological target: T2, avidin; test: Oxidation by [Ru(NH3)6]^3+, decrease of UV-visible absorption at 410 nm over time, free vs avidin-bound; conditions: oxidant [Ru(NH3)6]^3+
Procedure: In the case of [(4-DPEP)Ru(NH3)5]^2+ the oxidant [Ru(NH3)6]^3+ was added and the decrease of the UV-visible absorption at 410 nm was monitored over time.

Row | current signal after addition of biotin to the avidin-bound complex (displacement) (egg white avidin) | current signal after addition of biotin to the avidin-bound complex (displacement) (egg white avidin; listed as [(4-DMP)Ru(NH3)5](PF6)2) | current signal of the redox couple upon addition of avidin (egg white avidin) | effect of added electrochemical mediators on the current signal of the Ru couple (egg white avidin; avidin present, mediators 4,4′-bipyridine and methyl viologen) | current signal of the redox couple upon addition of avidin (egg white avidin; listed as [(4-DPEP)Ru(NH3)5](PF6)2) | rate of oxidation, avidin-bound versus free complex (avidin [2]) | Compound | kd of binding to avidin (avidin [1])
1 | increased nearly to the original level | the signal was regenerated | decreased | no effect on the current signal |  |  | [(4-DMP)RU(NH3)5][PF6]2 [[(4-DMP)Ru(NH3)5]^2+] | 
2 |  |  |  |  |  |  | C[C@@H]1NC(=O)N[C@@H]1CCCCCC(=O)O [desthiobiotin] | only slightly lower than that of biotin-avidin
3 |  |  | decreased the signal |  | disappeared upon addition of avidin | qualitatively slower | [(4-DPEP)Ru(NH3)5][PF6]2 [[(4-DPEP)Ru(NH3)5]^2+] | 
